These results are taken from ChEMBL document CHEMBL3045362, “Iodine catalyzed one-pot synthesis of chloro-substituted linear and angular indoloquinolines and in vitro antiproliferative activity study of different indoloquinolines” (Med Chem Res, 2013).

Assay [1] deals with MCF7. The experiment in a line: Cytotoxicity against Homo sapiens (human) MCF-7 cells assessed as survival after 48 hr by MTT assay. The assay is classed as functional, cell-based. Conditions: MCF7, 48 h. (Tetrazolium dyes change colour on reduction, which living cells bring about.)
The test system of assay [2] is HepG2. The experiment in a line: Cytotoxicity against Homo sapiens (human) HepG2 cells assessed as survival after 48 hr by MTT assay. The assay is classed as functional, cell-based. Conditions: HepG2, 48 h.

Values after ≈ are worked out from the molar mass of the structure shown.

The term IC50 denotes the concentration that inhibits the measured activity by half.

On to `c1ccc2[nH]c3nc4ccccc4c-3cc2c1`, for which the IC50 in assay [1] and in assay [2] was more than 1000 µg/mL each time.
In the case of `c1ccc2c(c1)ccc1cc3c(nc12)[nH]c1ccccc13`, the values for the IC50 in assay [1] and in assay [2] were 71.4 µg/mL (≈ 266 µM) and 98.1 µg/mL (≈ 366 µM), respectively.
The matching figures for `Cc1cccc2cc3c(nc12)[nH]c1ccccc13`: 5.5 µg/mL (≈ 23.7 µM) and 5.4 µg/mL (≈ 23.2 µM).
As to `Brc1ccc2cc3c(nc2c1)[nH]c1ccccc13`, the IC50 is 42.8 µg/mL (≈ 144 µM) in assay [1] and 34 µg/mL (≈ 114 µM) in assay [2].
